Source: paper PMC7129073 (Clinical Microbiology and Infection, 2015)
In brackets after ≈: the same amount, converted by molar mass. Where two headings read alike, the source gives them in different places.

How the values were obtained:
[1] = system: inducible Enterobacteriaceae; test: SMART 2003, intraabdominal isolates; type: cell-based
[2] = system: E. coli; test: SMART 2003 Europe, microdilution; type: cell-based, Escherichia coli; conditions: 1106 isolates
[3] = system: K. pneumoniae; test: MIC; type: cell-based, Klebsiella pneumoniae; conditions: for MIC: Klebsiella pneumoniae
[4] = system: S. aureus ATCC 25923; test: Cefoxitin Neo-Sensitabs tablet diffusion, control strain; type: cell-based; conditions: Staphylococcus aureus, ATCC25923, read-out: zone diameter
[5] = system: Enterobacteriaceae; test: SMART 2003 Europe, microdilution; type: cell-based; conditions: 1948 isolates
[6] = system: S. aureus ATCC 29213; test: Cefoxitin Neo-Sensitabs tablet diffusion, control strain; type: cell-based; conditions: Staphylococcus aureus, ATCC29213, read-out: zone diameter
[7] = system: Klebsiella; test: SMART 2003 Europe, microdilution; type: cell-based, Klebsiella spp.; conditions: 341 isolates
[8] = system: Pseudomonas spp.; test: MIC; type: cell-based
[9] = system: Gram-negative rods; test: Microscan MIC, blood culture isolates; type: cell-based
[10] = system: Pseudomonas aeruginosa; test: MIC, strains from cystic fibrosis patients; conditions: by MIC
[11] = system: N. farcinica strain; test: E-test on Mueller-Hinton agar; type: cell-based; conditions: Nocardia farcinica
[12] = system: E. coli; test: E-test susceptibility; type: cell-based, Escherichia coli
[13] = system: K. oxytoca; test: E-test susceptibility; type: cell-based, Klebsiella oxytoca
[14] = system: K. pneumoniae; test: E-test susceptibility; type: cell-based, Klebsiella pneumoniae
[15] = system: Acinetobacter; test: Disk diffusion; type: cell-based; conditions: 37 isolates selected as resistant to beta-lactams
[16] = system: P. aeruginosa; test: Disk diffusion, urine isolates of BPH patients
[17] = system: E. coli (Ec); test: E-test, recurrent UTI isolates of children; type: cell-based, Escherichia coli
[18] = system: E. coli; test: Resistance of UTI isolates of renal transplant recipients; type: cell-based, Escherichia coli; conditions: 75 isolates
[19] = system: Nocardia spp.; test: E-test on Mueller Hinton agar, 81 clinical isolates; type: cell-based; conditions: for MIC50 / MIC90: Nocardia
[20] = system: S. pneumoniae; test: PROTEKT Italy, NCCLS microdilution; type: cell-based, Streptococcus pneumoniae
[21] = system: N.gonorrhoeae; test: microbe, parasite or virus in culture; type: cell-based; conditions: Neisseria gonorrhoeae
[22] = system: Shigella spp.; test: Disk diffusion, stool isolates Tehran; type: cell-based; conditions: 96 isolates
[23] = system: viridans group streptococci (VGS); test: MIC; type: cell-based
[24] = system: Pseudomonas putida clinical isolates; test: Agar dilution MIC; type: cell-based
[25] = system: Salmonella enterica; test: VITEK, NCCLS microdilution and disc diffusion of quinolones; type: cell-based
[26] = system: K. oxytoca isolate; test: MIC of qnr-positive SHV-12 producer; type: cell-based; conditions: Klebsiella oxytoca
[27] = system: Streptococcus agalactiae strains P0162 and P0425; test: Microdilution; type: cell-based
[28] = system: Salmonella serotype Typhimurium; test: Disk diffusion, food isolates Spain; type: cell-based; conditions: n = 53
[29] = system: glycopeptide intermediate Staphylococcus species (GISS); test: VITEK II, screening plate and E test, blood isolates; type: cell-based, coagulase-negative Staphylococci; conditions: 73 GISS strains
[30] = system: Haemophilus influenzae; test: Susceptibility testing; type: cell-based; conditions: conjunctival isolates 2000–2004
[31] = system: Escherichia coli (ECO); test: Broth microdilution; type: cell-based
[32] = system: Salmonella, other 49 serotypes; test: Disk diffusion, food isolates Spain; type: cell-based; conditions: n = 115
[33] = system: Salmonella serotype Enteritidis; test: Disk diffusion, food isolates Spain; type: cell-based; conditions: n = 96
[34] = system: Staphylococcus aureus; test: Susceptibility testing; type: cell-based; conditions: conjunctival isolates 2000–2004
[35] = system: Streptococcus pneumoniae; test: Susceptibility testing; type: cell-based; conditions: 99 isolates tested
[36] = system: Escherichia coli O157:H7; test: Kirby-Bauer susceptibility; type: cell-based; conditions: 30 strains, 1990–2003
[37] = system: nontyphoidal Salmonella; test: Agar dilution, isolates from chickens 1998–2004; type: cell-based, Salmonella spp.; conditions: Germany (carcass meat)
[38] = system: Enterobacter cloacae (ECL); test: Broth microdilution; type: cell-based
[39] = system: Klebsiella pneumoniae (KPN)
[40] = system: Proteus mirabilis (PMI); test: Broth microdilution; type: cell-based
[41] = system: B. thetaiotaomicron; test: NCCLS broth microdilution, beta-lactamase positive isolates; type: cell-based, Bacteroides thetaiotaomicron; conditions: 48 hr
[42] = system: B. vulgatus; test: as above; type: cell-based, Bacteroides vulgatus; conditions: 48 hr
[43] = system: B. fragilis; test: as above; type: cell-based, Bacteroides fragilis; conditions: 48 hr
[44] = system: B. ovatus; test: as above; type: cell-based, Bacteroides ovatus; conditions: 48 hr
[45] = system: B. distasonis; test: as above; type: cell-based, Bacteroides distasonis; conditions: 48 hr

CO[C@@]1(NC(=O)Cc2cccs2)C(=O)N2C(C(=O)O)=C(COC(N)=O)CS[C@@H]21 [cefoxitin]
% susceptible ([1]; A/P (N = 200)): 27%
% susceptible ([1]; EU (N = 354)): 29%
% susceptible ([1]; LA (N=113)): 30%
% susceptible ([1]; NA (N = 163)): 23%
per cent susceptible [2]: 94%
MIC [3]: > 64 µg/mL
zone of inhibition at 10 µg/disc [4]: 22 to 23 mm
zone of inhibition at 30 µg/disc [4]: 27 to 29 mm
zone of inhibition at 60 µg/disc [4]: 32 to 33 mm
per cent susceptible [5]: 82%
zone of inhibition at 10 µg/disc [6]: 21 to 23 mm
zone of inhibition at 30 µg/disc [6]: 27 to 29 mm
zone of inhibition at 60 µg/disc [6]: 29 to 33 mm
per cent susceptible [7]: 92%

C[C@@H](O)[C@H]1C(=O)N2C(C(=O)O)=C(S[C@@H]3CN[C@H](C(=O)N(C)C)C3)[C@H](C)[C@H]12 [meropenem]
% susceptible ([1]; A/P (N = 200)): 100%
% susceptible ([1]; EU (N = 354)): 99%
% susceptible ([1]; LA (N=113)): 98%
% susceptible ([1]; NA (N = 163)): 99%
per cent susceptible [2]: >99%
MIC [3]: 4 to 16 µg/mL (≈ 10.4 to 41.7 µM)
susceptible strains [8]: 98%
susceptible strains (n/N) [9]: 16/16
Susceptible isolates [10]: 96%
per cent susceptible [5]: >99%
MIC [11]: > 32 µg/mL
Susceptible isolates ([12]; ICU, SRGA breakpoints, tigecycline tentative S ≤2 μg/ml): 100%
Susceptible isolates ([12]; non ICU): 99%
Susceptible isolates ([13]; ICU): 100/100%
Susceptible isolates ([13]; non ICU): 100/100%
Susceptible isolates ([14]; ICU): 100/100%
Susceptible isolates ([14]; non ICU): 100/100%
per cent susceptible [7]: 99%
resistant isolates [15]: 0.0%

CCN1CCN(C(=O)N[C@@H](C(=O)N[C@@H]2C(=O)N3[C@@H]2SC(C)(C)[C@@H]3C(=O)O)c2ccccc2)C(=O)C1=O [piperacillin]
susceptible strains [8]: 84%
resistance [16]: 73.3%
resistant isolates [15]: 100.0%

Cc1cc(NS(=O)(=O)c2ccc(N)cc2)no1 [Sulfa, sulfamethoxazol]
MIC of sensitive isolates carrying sulI and sulII ([17]; 3 isolates): 8 mg/L
MIC of sensitive strains without the three genes ([17]; 6 strains): 12 to 32 mg/L
resistant isolates ([17]; 20 out of 29): 65.5%

Ampicillin/ Sulbactam [A/S]
rate of resistance [18]: 34%
resistant isolates [15]: 10.8%

CO/N=C(\C(=O)N[C@@H]1C(=O)N2C(C(=O)O)=C(CSc3nc(=O)c(=O)[nH]n3C)CS[C@H]12)c1csc(N)n1 [ceftriaxone]
% susceptible ([1]; A/P (N = 200)): 60%
% susceptible ([1]; EU (N = 354)): 79%
% susceptible ([1]; LA (N=113)): 71%
% susceptible ([1]; NA (N = 163)): 75%
MIC50 [19]: 8 µg/mL (≈ 14.4 µM)
MIC90 [19]: > 256 µg/mL
rate of resistance [18]: 1%
susceptible ([20]; year 1: 2002): 88.9%
susceptible ([20]; year 2: 2003): 93.7%
per cent susceptible [5]: 91%
MIC ([21]; strain 76mu6): 0.12 µg/mL (≈ 0.216 µM)
MIC ([21]; strain 92mu6): 0.015 µg/mL (≈ 0.027 µM)
MIC ([21]; strain 92mu13): 0.008 µg/mL (≈ 0.0144 µM)
sensitive [22]: 100%
MIC50 [23]: 0.06 µg/mL (≈ 0.108 µM)
MIC90 [23]: 0.5 µg/mL (≈ 0.902 µM)
per cent susceptible [7]: 89%
resistant isolates [15]: 75.7%

CCn1cc(C(=O)O)c(=O)c2cc(F)c(N3CCNCC3)cc21 [norfloxacin]
MIC [24]: > 128 µg/mL
MIC ([25]; read-out: NCCLS MIC, 37 NAL-R strains): 0.54 µg/mL (≈ 1.69 µM)
MIC ([25]; read-out: NCCLS MIC, NAL-S strains): ≤ 0.06 µg/mL
MIC ([25]; read-out: VITEK MIC, 37 strains): 2 µg/mL (≈ 6.26 µM)
MIC ([25]; read-out: VITEK MIC, five strains): < 0.5 µg/mL
MIC [26]: < 0.1 µg/mL
MIC ([27]; strain P0162 (ParC Ser79Phe, GyrA Glu85Ala)): > 256 µg/mL
MIC ([27]; strain P0425 (ParC Ser79Phe, GyrA Glu85Lys)): > 256 µg/mL
sensitive [22]: 100%
resistant isolates [15]: 100.0%

NC[C@H]1O[C@H](O[C@H]2[C@H](O)[C@@H](O[C@H]3O[C@H](CO)[C@@H](O)[C@H](N)[C@H]3O)[C@H](N)C[C@@H]2N)[C@H](N)C[C@@H]1O [tobramycin]
% susceptible ([1]; A/P (N = 200)): 77%
% susceptible ([1]; EU (N = 354)): 93%
% susceptible ([1]; LA (N=113)): 79%
% susceptible ([1]; NA (N = 163)): 93%
per cent susceptible [2]: 92%
resistance rate (NCCLS M100-S13) [28]: 4%
MIC50 [19]: 4 µg/mL (≈ 8.56 µM)
MIC90 [19]: 12 µg/mL (≈ 25.7 µM)
MIC range ([19]; read after 48 and 72 h): <0.016 to 24 mg/L
resistance rate [29]: 91,8%
susceptibility category ([3]; BSAC): resistant
resistant isolates [30]: 2.6%
susceptible ([31]; NAL-resistant isolates, 2001): 71.4%
susceptible ([31]; NAL-susceptible isolates, 2001): 95.0%
resistance rate (NCCLS M100-S13) [32]: 0%
per cent susceptible [5]: 93%
resistance rate (NCCLS M100-S13) [33]: 1%
resistant isolates [34]: 14.6%
resistant isolates [35]: 49.5%
per cent susceptible [7]: 91%
resistant isolates [15]: 10.8%

CCn1cc(C(=O)O)c(=O)c2ccc(C)nc21 [nalidixic acid]
resistant strains [36]: 10%
MIC [26]: 16 µg/mL
resistance [37]: 9%
resistance [31]; 1984: 1.6%
resistance [31]; 2001: 19.2%
resistance [38]; 1984: 2.0%
resistance [38]; 2001: 17.5%
resistance rate (NCCLS M100-S13) [32]: 14%
resistance [39]; 1984: 12.2%
resistance [39]; 2001: 21.6%
sensitive [22]: 96%
resistance [40]; 1984: 2.6%
resistance [40]; 2001: 15.9%

C[C@]1(Cn2ccnn2)[C@H](C(=O)O)N2C(=O)C[C@H]2S1(=O)=O [Tz, Tazobactam]
isolates inhibited at 16 mg/L [41]: 100%
isolates inhibited at =/< 4 mg/L [41]: 42%
isolates inhibited at 8 mg/L [42]: 83%
isolates inhibited at 16 mg/L [42]: 100%
isolates inhibited at =/< 4 mg/L [42]: 50%
isolates inhibited at 8 mg/L [43]: 97%
isolates inhibited at 16 mg/L [43]: 98%
isolates inhibited at =/< 4 mg/L [43]: 86%
isolates inhibited at 8 mg/L [44]: 56%
isolates inhibited at 16 mg/L [44]: 86%
isolates inhibited at =/< 4 mg/L [44]: 23%
isolates inhibited at 8 mg/L [45]: 50%
isolates inhibited at 16 mg/L [45]: 100%
isolates inhibited at =/< 4 mg/L [45]: 25%
